Experimental data reported in patent publication US20190216761A1, “COMPOSITIONS COMPRISING 15-HEPE AND METHODS OF USING THE SAME” (Afimmune Limited, priority 2015, published 2019).
Where a chain is given by its changes, count along the chain named. Marks after values point to notes of the source that are not given here.

Legend:
Assay type in all cases: cell-based
hPPARγ = biological target: T1, hPPARγ (Homo sapiens, UniProt P37231); assay: PPAR agonist reporter assay (Gal4 hybrid receptor, luciferase)
T1 construct: expressed in transfected cells
T1 sequence (P37231 238-503 limits assumed): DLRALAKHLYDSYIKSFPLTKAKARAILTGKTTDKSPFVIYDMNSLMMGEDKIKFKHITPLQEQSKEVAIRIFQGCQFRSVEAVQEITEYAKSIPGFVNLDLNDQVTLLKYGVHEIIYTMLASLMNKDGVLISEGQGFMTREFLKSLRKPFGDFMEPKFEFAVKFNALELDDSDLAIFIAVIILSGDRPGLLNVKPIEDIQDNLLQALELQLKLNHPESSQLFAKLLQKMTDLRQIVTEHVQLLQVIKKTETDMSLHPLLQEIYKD
Protocol: (§1) This study utilized proprietary reporter cells expressing a hybrid receptor comprising the N-terminal Gal4 DNA binding domain fused to the ligand binding domain of the specific human nuclear receptor (hPPARα, hPPARδ, and hPPARγ) and rat nuclear receptor (rPPARα, rPPARδ, and rPPARγ). The reporter vectors used in this Example comprise the firefly luciferase gene functionally linked to the Gal4 upstream activation sequence.
(§2) Nuclear Receptor assay was performed by dispensing 100 μL of a suspension of Reporter Cells in Cell Recovery Medium (CRM) containing 10% charcoal stripped FBS into each well of a white 96-well plate. Test compounds were diluted using compound screening medium (CSM) containing 10% charcoal stripped FBS to generate “2×-concentration” treatment media. Immediately after this dilution step, 100 μL of each diluted 2×-concentration treatment medium was dispensed (in triplicate) into the Reporter Cell-containing assay wells.
(§3) After incubation at 37° C. for 24 hours, the treatment media was discarded. 100 μL of Luciferase Detection Reagent substrate was added to each well and RLUs were quantified from each well to determine nuclear receptor activities.

rPPARγ = biological target: T2, rPPARγ (Rattus norvegicus, UniProt O88275); assay: as above
T2 construct: expressed in transfected cells
T2 sequence (O88275 238-503 limits assumed): T1 sequence (P37231 238-503 limits assumed) with S93N, V98I, L226V, Q245H
Protocol: as §1, §2, §3

hPPARα Reporter Cells = assay: Live cell multiplex assay
Protocol: as §1
(§4) Nuclear Receptor assay was performed by suspending Reporter Cells in CRM containing 10% charcoal stripped FBS. 2×-EC80 concentrations of the appropriate reference agonist were then added to the Reporter Cell suspension, and 100 μL of the mixture dispensed into wells of a white 96-well plate. Test compounds were diluted using compound screening medium (CSM) containing 10% charcoal stripped FBS to generate “2×-concentration” treatment media. Immediately after this dilution step, 100 μL of each diluted 2×-concentration treatment medium was dispensed (in triplicate) into the Reporter Cell-containing assay wells.
(§5) After incubation at 37° C. for 24 hours, the treatment media was discarded. Each well was rinsed once with LCM Buffer; LCM substrate was then added. After incubation for 30 minutes at 37° C., fluorescence was measured to determine the relative number of live cells per assay well. LCM substrate was then discarded and 100 μL of Luciferase Detection Reagent substrate was added to each well. RLUs were quantified from each well to determine nuclear receptor activities.

hPPARγ Reporter Cells = assay: Live cell multiplex assay
Protocol: as §1, §4, §5

hPPARδ Reporter Cells = assay: Live cell multiplex assay
Protocol: as §1, §4, §5

rPPARα Reporter Cells = assay: Live cell multiplex assay
Protocol: as §1, §4, §5

rPPARγ Reporter Cells = assay: Live cell multiplex assay
Protocol: as §1, §4, §5

rPPARδ Reporter Cells = assay: Live cell multiplex assay
Protocol: as §1, §4, §5

SMILES: CC/C=C\C/C=C\C/C=C\C/C=C\C/C=C\CCCC(=O)OCC [EPA-EE, EPA ethyl ester, reference compound]
- Fold-Activation (vs. 0.10% DMSO) hPPAR-γ (hPPARγ; 137 nM): 0.90 fold
- Fold-Activation (vs. 0.10% DMSO) hPPAR-γ (hPPARγ; 412 nM): 0.94 fold
- Fold-Activation (vs. 0.10% DMSO) hPPAR-γ (hPPARγ; 1,235 nM): 0.94 fold
- Fold-Activation (vs. 0.10% DMSO) hPPAR-γ (hPPARγ; 3,704 nM): 0.88 fold
- Fold-Activation (vs. 0.10% DMSO) hPPAR-γ (hPPARγ; 11,111 nM): 1.0 fold
- Fold-Activation (vs. 0.10% DMSO) hPPAR-γ (hPPARγ; 33,333 nM): 0.78 fold
- Fold-Activation (vs. 0.10% DMSO) hPPAR-γ (hPPARγ; 100,000 nM): 1.2 fold
- Fold-Activation (vs. 0.10% DMSO) hPPAR-γ (hPPARγ; 300,000 nM): 2.8* fold
- Fold-Activation (vs. 0.10% DMSO) rPPAR-γ (rPPARγ; 137 nM): 0.90 fold
- Fold-Activation (vs. 0.10% DMSO) rPPAR-γ (rPPARγ; 412 nM): 0.94 fold
- Fold-Activation (vs. 0.10% DMSO) rPPAR-γ (rPPARγ; 1,235 nM): 0.99 fold
- Fold-Activation (vs. 0.10% DMSO) rPPAR-γ (rPPARγ; 3,704 nM): 0.97 fold
- Fold-Activation (vs. 0.10% DMSO) rPPAR-γ (rPPARγ; 11,111 nM): 0.97 fold
- Fold-Activation (vs. 0.10% DMSO) rPPAR-γ (rPPARγ; 33,333 nM): 0.99 fold
- Fold-Activation (vs. 0.10% DMSO) rPPAR-γ (rPPARγ; 100,000 nM): 1.0 fold
- Fold-Activation (vs. 0.10% DMSO) rPPAR-γ (rPPARγ; 300,000 nM): 2.1* fold
- % Live cells vs. 0.10% DMSO, hPPAR-α (hPPARα Reporter Cells; 137 nM): 99%
- % Live cells vs. 0.10% DMSO, hPPAR-α (hPPARα Reporter Cells; 412 nM): 93%
- % Live cells vs. 0.10% DMSO, hPPAR-α (hPPARα Reporter Cells; 1,235 nM): 113%
- % Live cells vs. 0.10% DMSO, hPPAR-α (hPPARα Reporter Cells; 3,704 nM): 112%
- % Live cells vs. 0.10% DMSO, hPPAR-α (hPPARα Reporter Cells; 11,111 nM): 116%
- % Live cells vs. 0.10% DMSO, hPPAR-α (hPPARα Reporter Cells; 33,333 nM): 112%
- % Live cells vs. 0.10% DMSO, hPPAR-α (hPPARα Reporter Cells; 100,000 nM): 96%
- % Live cells vs. 0.10% DMSO, hPPAR-α (hPPARα Reporter Cells; 300,000 nM): 80%
- % Live cells vs. 0.10% DMSO, hPPAR-γ (hPPARγ Reporter Cells; 137 nM): 88%
- % Live cells vs. 0.10% DMSO, hPPAR-γ (hPPARγ Reporter Cells; 412 nM): 99%
- % Live cells vs. 0.10% DMSO, hPPAR-γ (hPPARγ Reporter Cells; 1,235 nM): 101%
- % Live cells vs. 0.10% DMSO, hPPAR-γ (hPPARγ Reporter Cells; 3,704 nM): 101%
- % Live cells vs. 0.10% DMSO, hPPAR-γ (hPPARγ Reporter Cells; 11,111 nM): 101%
- % Live cells vs. 0.10% DMSO, hPPAR-γ (hPPARγ Reporter Cells; 33,333 nM): 102%
- % Live cells vs. 0.10% DMSO, hPPAR-γ (hPPARγ Reporter Cells; 100,000 nM): 103%
- % Live cells vs. 0.10% DMSO, hPPAR-γ (hPPARγ Reporter Cells; 300,000 nM): 92%
- % Live cells vs. 0.10% DMSO, hPPAR-δ (hPPARδ Reporter Cells; 137 nM): 97%
- % Live cells vs. 0.10% DMSO, hPPAR-δ (hPPARδ Reporter Cells; 412 nM): 97%
- % Live cells vs. 0.10% DMSO, hPPAR-δ (hPPARδ Reporter Cells; 1,235 nM): 99%
- % Live cells vs. 0.10% DMSO, hPPAR-δ (hPPARδ Reporter Cells; 3,704 nM): 100%
- % Live cells vs. 0.10% DMSO, hPPAR-δ (hPPARδ Reporter Cells; 11,111 nM): 101%
- % Live cells vs. 0.10% DMSO, hPPAR-δ (hPPARδ Reporter Cells; 33,333 nM): 101%
- % Live cells vs. 0.10% DMSO, hPPAR-δ (hPPARδ Reporter Cells; 100,000 nM): 103%
- % Live cells vs. 0.10% DMSO, hPPAR-δ (hPPARδ Reporter Cells; 300,000 nM): 103%
- % Live cells vs. 0.10% DMSO, rPPAR-α (rPPARα Reporter Cells; 137 nM): 89%
- % Live cells vs. 0.10% DMSO, rPPAR-α (rPPARα Reporter Cells; 412 nM): 98%
- % Live cells vs. 0.10% DMSO, rPPAR-α (rPPARα Reporter Cells; 1,235 nM): 102%
- % Live cells vs. 0.10% DMSO, rPPAR-α (rPPARα Reporter Cells; 3,704 nM): 103%
- % Live cells vs. 0.10% DMSO, rPPAR-α (rPPARα Reporter Cells; 11,111 nM): 102%
- % Live cells vs. 0.10% DMSO, rPPAR-α (rPPARα Reporter Cells; 33,333 nM): 100%
- % Live cells vs. 0.10% DMSO, rPPAR-α (rPPARα Reporter Cells; 100,000 nM): 95%
- % Live cells vs. 0.10% DMSO, rPPAR-α (rPPARα Reporter Cells; 300,000 nM): 94%
- % Live cells vs. 0.10% DMSO, rPPAR-γ (rPPARγ Reporter Cells; 137 nM): 97%
- % Live cells vs. 0.10% DMSO, rPPAR-γ (rPPARγ Reporter Cells; 412 nM): 101%
- % Live cells vs. 0.10% DMSO, rPPAR-γ (rPPARγ Reporter Cells; 1,235 nM): 102%
- % Live cells vs. 0.10% DMSO, rPPAR-γ (rPPARγ Reporter Cells; 3,704 nM): 101%
- % Live cells vs. 0.10% DMSO, rPPAR-γ (rPPARγ Reporter Cells; 11,111 nM): 100%
- % Live cells vs. 0.10% DMSO, rPPAR-γ (rPPARγ Reporter Cells; 33,333 nM): 101%
- % Live cells vs. 0.10% DMSO, rPPAR-γ (rPPARγ Reporter Cells; 100,000 nM): 98%
- % Live cells vs. 0.10% DMSO, rPPAR-γ (rPPARγ Reporter Cells; 300,000 nM): 102%
- % Live cells vs. 0.10% DMSO, rPPAR-δ (rPPARδ Reporter Cells; 137 nM): 100%
- % Live cells vs. 0.10% DMSO, rPPAR-δ (rPPARδ Reporter Cells; 412 nM): 94%
- % Live cells vs. 0.10% DMSO, rPPAR-δ (rPPARδ Reporter Cells; 1,235 nM): 98%
- % Live cells vs. 0.10% DMSO, rPPAR-δ (rPPARδ Reporter Cells; 3,704 nM): 95%
- % Live cells vs. 0.10% DMSO, rPPAR-δ (rPPARδ Reporter Cells; 11,111 nM): 100%
- % Live cells vs. 0.10% DMSO, rPPAR-δ (rPPARδ Reporter Cells; 33,333 nM): 99%
- % Live cells vs. 0.10% DMSO, rPPAR-δ (rPPARδ Reporter Cells; 100,000 nM): 101%
- % Live cells vs. 0.10% DMSO, rPPAR-δ (rPPARδ Reporter Cells; 300,000 nM): 102%
